The text below walks through data of patent US4371544A, “Pharmaceutical composition containing 1,1,3,5-substituted biuret compound” (Taiho Pharmaceutical Company Limited, priority 1979, dated 1983).

Like-named read-outs stand apart in the source and are kept apart here.

The subject of data set [1] is ddy strain of male mice. The experiment in a line: Analgesic activity, Haffner method (morphine threshold dose, clamp). The note with it: for inhibition in vivo at 200 mg/kg / inhibition in vivo at 100 mg/kg / ED50: Mus musculus; for inhibition in vivo at 200 mg/kg / inhibition in vivo at 100 mg/kg: read-out: Analgesic activity, Haffner method, inhibitory ratio; for ED50: oral, Δ mark, range in parentheses. It is filed as in vivo, mouse (ddy). As for the experimental part:
(§1) Next, several tests for determining the pharmacological properties, in that acute toxicity, anti-pyretic activity, analgesic activity and anti-inflammatory activity of the present 1,1,3,5-substituted biuret compounds of the formula (1) were conducted and the test results are shown in Table (2). In the tests, each compounds to be tested was used as a suspension in 0.25% carboxymethylcellulose solution. Methods for testing are explained as follows:
According to the modified method reported by Fujimura et. al., [Bulletin of the Institute for Chemical Research, Kyoto University, No. 25, pp. 36 (1951)], the ddy strain of male mice (body weight, 20-25 g) were used as test animals. The mice were fasted overnight, 100 mg/kg body weight of the test compound was administered orally, then 45 minutes after the administration, the threshold amount (1.5-2.5 mg/kg body weight) of morphine hydrochloride was injected subcutaneously. Then 1-hour pain reaction of the mouse caused by a clamp was observed. Analgesic activity of the test compound was calculated as the inhibitory ratio (%). In Table 2, the values in parentheses show the data obtained from the test by using the dosage other than 100 mg/kg body weight. Further, the values indicated with Δ marks show 50% effective dose, ED50 (mg/kg body weight).

Data set [2] has as its system ddy strain of male mice. In words: Acute toxicity (oral, mice, 7 days observation). It is filed as in vivo. As for the experimental part:
as §1
The ddy strain of male mice (body weight, 20-25 g) were used as test animals. The mice were fasted overnight and the compound to be tested was administered orally. […] The lethal dose (mg/kg, body weight) of the test compound was determined in connection with the death number of mice/the number of mice tested. In Table 2, the values indicated with Δ marks are 50% lethal dose, LD50 (mg/kg, body weight).

Data set [3] has as its system Wistar strain of male rats. In words: Anti-inflammatory activity (acute carrageenin-induced inflammatory test, hindpaw). It is filed as in vivo, rat (Wistar). The following applies: for inhibition in vivo at 100 mg/kg / inhibition in vivo at 200 mg/kg: Rattus norvegicus, read-out: Anti-inflammatory activity, inflammation inhibitory ratio. The method, then:
as §1
According to the method of acute carrageenin-induced inflammatory test [Folia Pharmacologia Japonica, Vol. 56, pp. 575 (1960)], the Wistar strain of male rats (body weight, 150-180 g) were used as test animals. The rats were fasted overnight, 100 mg/kg body weight of the test compound was administered orally, then 1 hour after the administration, 0.1 ml of 1% carrageenin solution, as the inflammation inducing agent, was injected subcutaneously to the hindpaw of the rat and the volume of the hindpaw was measured at time sequences, Anti-inflammatory activity of the test compound was calculated as inflammation inhibitory ratio (%) at 3 hours after the injection of inflammation inducing agent.

Data set [4] concerns ddy strain of male mice. The experiment in a line: Analgesic activity, acetic acid-induced stretching method. The note with it: for ED50: oral, Δ mark, range in parentheses. It is filed as in vivo, mouse (ddy). As for the experimental part: as §1
According to the method reported by Koster et al., [Fed. Proc., Vol. 18, pp. 412 (1959)], the ddy strain of male mice (body weight, 20-25 g) were used as test animals. The mice were fasted overnight, 100 mg/kg body weight of the test compound was administered orally, then 1 hour after the administration, 0.2 ml of 0.7% acetic acid solution was injected intraperitoneally. The acetic acid-induced stretching symptom of mouse was observed. Analgesic activity of the test compound was calculated as the inhibitory ratio (%). In Table 2, the values in parentheses show the data obtained from the test by using the dosage other than 100 mg/kg body weight. Further, the values indicated with Δ marks show 50% effective dose, ED50 (mg/kg body weight).

Data set [5] concerns Wistar strain of male rats. In words: Anti-pyretic activity (dry-yeast-induced fever). It is filed as in vivo, rat (Wistar). The following applies: oral (dose not given), up to 4 hours after administration. As for the experimental part:
as §1
According to the method reported by Tanabe [Folia Pharmacologia Japonica, Vol. 73, pp. 803 (1977)], the Wistar strain of male rats (150-180 g, body weight) were used as test animals. The rats were fasted overnight, and 1 ml/100 g (body weight) of 10% dry-yeast suspension were subcutaneously injected on the back of the rats. Five hours after the injection, the test compound was administered orally, then the body temperature of the rat was measured at time sequences. Anti-pyretic activity of the test compound was determined as the FI (febril index) by integrating pyrogenetic curve up to 4 hours after the administration of the test compound with time, and indicated as inhibitory ratio (%) shown by the following formula, [formula]

The mark [6] stands for this setting: 100 mg/kg oral, 3 hours after carrageenin.
The mark [7] stands for this setting: Mus musculus, po, read-out: Analgesic activity, acetic acid-induced stretching method, inhibitory ratio.
Setting [8] is: 100 mg/kg oral, 45 minutes before morphine hydrochloride.
Setting [9] is: 100 mg/kg oral, 1 hour before acetic acid.

Turning to `CN(C)C(=O)NC(=O)Nc1ccccc1` [Compound No. 1], the inhibition in vivo at 200 mg/kg in data set [1] (200 mg/kg oral) is 50%. Further, in data set [2] (mouse, in vivo), the “Acute toxicity: death number of mice/number of mice tested” value is given as 0/4. The figures for the inhibition in vivo at 100 mg/kg in data set [3] (setting [6]) and in data set [4] (setting [7]) were 42% and 50%, respectively.
As to `COc1ccc(NC(=O)NC(=O)N(C)C)cc1` [Compound No. 4, 1,1-Dimethyl-5-(4-methoxyphenyl)biuret], the inhibition in vivo at 100 mg/kg was determined as 50% in data set [1] (setting [8]); 43% in data set [3] (po, 3 h); 75% in data set [4] (setting [7]). In addition, in data set [2] (2000 mg/kg oral), the “Acute toxicity: death number of mice/number of mice tested” value was 0/4.
In the case of `Cc1ccc(NC(=O)NC(=O)N(C)C)cc1` [Compound No. 5], the “Acute toxicity: death number of mice/number of mice tested” value in data set [2] (2000 mg/kg oral) is recorded as 0/4. For the same molecule, the inhibition in vivo at 100 mg/kg in data set [3] (po, 2 h) stood at 23%; in data set [4] (setting [7]), 25%.
A word on the ED50: it is the dose that gives a 50% effect, or the effect in half of the subjects. On to `CN(C)C(=O)N(C)C(=O)Nc1ccccc1` [Compound No. 6, 1,1,3-trimethyl-5-phenylbiuret], for which the “Anti-pyretic activity, inhibitory ratio (febril index)” value in data set [5] is listed as 80%. In addition, the ED50 in data set [1] was 68 mg/kg; in data set [4] (Mus musculus) it was 75 mg/kg. Moreover, the “Anti-inflammatory activity, inflammation inhibitory ratio” value in data set [3] (setting [6]) is listed as 59%.
On the same counts, the results for `CN(C)C(=O)N(C)C(=O)Nc1ccc(Cl)cc1` [Compound No. 12, 1,1,3-Trimethyl-5-(4-chlorophenyl)biuret] are 84%, 20 mg/kg, 12 mg/kg and 47%.
Take `CCN(C)C(=O)NC(=O)Nc1ccccc1` [Compound No. 43, 1-ethyl-1-methyl-5-phenylbiuret]: the inhibition in vivo at 200 mg/kg in data set [1] (200 mg/kg oral) turned out to be 12.5%; in data set [3] (200 mg/kg oral, 3 hours after carrageenin), 72%. Also, the “Acute toxicity: death number of mice/number of mice tested” value in data set [2] (2000 mg/kg oral) is recorded as 0/4. In data set [4] (Mus musculus, 100 mg/kg oral, 1 hour before acetic acid, read-out: Analgesic activity, acetic acid-induced stretching method, inhibitory ratio), the inhibition in vivo at 100 mg/kg is 50%.
As for `CN(C)C(=O)N(C)C(=O)Nc1ccc([N+](=O)[O-])cc1` [compound 20, 1,1,3-Trimethyl-5-(4-nitrophenyl)biuret], the “Anti-pyretic activity, inhibitory ratio (febril index)” value in data set [5] was 26%. Besides, the “Analgesic activity, Haffner method, inhibitory ratio” value in data set [1] (setting [8]) is 50%. Also, the “Acute toxicity: death number of mice/number of mice tested” value in data set [2] (500 mg/kg oral) is reported as 2/4. Further, the “Anti-inflammatory activity, inflammation inhibitory ratio” value in data set [3] (setting [6]) amounted to 32%.
On to `COc1cc(NC(=O)N(C)C(=O)N(C)C)cc(OC)c1OC` [compound 25, 1,1,3-Trimethyl-5-(3,4,5-trimethoxyphenyl)biuret], for which, in data set [5], the “Anti-pyretic activity, inhibitory ratio (febril index)” value is given as 23%. Further, in data set [1] (setting [8]), the “Analgesic activity, Haffner method, inhibitory ratio” value is on record as 62.5%. Moreover, the “Acute toxicity: death number of mice/number of mice tested” value in data set [2] (500 mg/kg oral) is 0/4; in data set [2] (1000 mg/kg oral), 2/4. In addition, the “Anti-inflammatory activity, inflammation inhibitory ratio” value in data set [3] (setting [6]) was 30%.
On to `Cc1c(Cl)cccc1NC(=O)N(C)C(=O)N(C)C` [compound 32, 1,1,3-Trimethyl-5-(2-methyl-3-chlorophenyl)biuret], for which the “Anti-pyretic activity, inhibitory ratio (febril index)” value in data set [5] stood at 45%. Further, in data set [1] (setting [8]), the “Analgesic activity, Haffner method, inhibitory ratio” value is 25%. The results for the “Acute toxicity: death number of mice/number of mice tested” value in data set [2] (1000 mg/kg oral) and in data set [2] (2000 mg/kg oral) were 1/4 and 4/4, respectively. In addition, the “Analgesic activity, acetic acid-induced stretching method, inhibitory ratio” value in data set [4] (setting [9]) is listed as 75%.
`CC(=O)c1ccc(NC(=O)N(C)C(=O)N(C)C)cc1` [compound 33, 1,1,3-Trimethyl-5-(4-acetylphenyl)biuret]: in data set [5], the “Anti-pyretic activity, inhibitory ratio (febril index)” value worked out at 36%. In addition, the “Analgesic activity, Haffner method, inhibitory ratio” value in data set [1] (setting [8]) came out at 37.5%. For the same molecule, the “Acute toxicity: death number of mice/number of mice tested” value is on record as 0/4 in data set [2] (500 mg/kg oral) and 4/4 in data set [2] (1000 mg/kg oral). Besides, the “Anti-inflammatory activity, inflammation inhibitory ratio” value in data set [3] (100 mg/kg oral, (2 hours)) was 31%.
Take `CN(C)C(=O)N(C)C(=O)NC1CCCCC1` [compound 35, 1,1,3-Trimethyl-5-cyclohexylbiuret]: in data set [1] (setting [8]), the “Analgesic activity, Haffner method, inhibitory ratio” value amounted to 25%. The inhibition in vivo at 100 mg/kg in data set [3] (po, 3 h) is 24%. The “Analgesic activity, acetic acid-induced stretching method, inhibitory ratio” value in data set [4] (200 mg/kg oral) was 87.5%.
As to `CCCN(C(=O)Nc1ccccc1)C(=O)N(C)C` [compound 37, 1,1-Dimethyl-3-n-propyl-5-phenylbiuret], the “Anti-pyretic activity, inhibitory ratio (febril index)” value in data set [5] was 12%. The “Analgesic activity, Haffner method, inhibitory ratio” value in data set [1] (200 mg/kg oral) turned out to be 62.5%. Besides, the “Acute toxicity: death number of mice/number of mice tested” value in data set [2] (2000 mg/kg oral) was 0/4. The “Analgesic activity, acetic acid-induced stretching method, inhibitory ratio” value in data set [4] (setting [9]) is given as 37.5%.
In the case of `CCCCN(C)C(=O)NC(=O)Nc1ccccc1` [compound 47, 1-Methyl-1-n-butyl-5-phenylbiuret], the figures for the inhibition in vivo at 100 mg/kg in data set [1] (setting [8]), in data set [3] (setting [6]) and in data set [4] (setting [7]) were 25%, 20% and 50%, respectively. Further, the “Acute toxicity: death number of mice/number of mice tested” value in data set [2] (2000 mg/kg oral) is 0/4.
Turning to `CCCCN(C)C(=O)N(C)C(=O)Nc1ccccc1` [compound 48, 1,3-Dimethyl-1-n-butyl-5-phenylbiuret], in data set [5], the “Anti-pyretic activity, inhibitory ratio (febril index)” value was found to be 35%. Also, the “Analgesic activity, Haffner method, inhibitory ratio” value in data set [1] (setting [8]) worked out at 25%. Moreover, the “Acute toxicity: death number of mice/number of mice tested” value in data set [2] (1000 mg/kg oral) was 0/4; in data set [2] (2000 mg/kg oral), 3/4. Moreover, the “Analgesic activity, acetic acid-induced stretching method, inhibitory ratio” value in data set [4] (setting [9]) is given as 37.5%.
As to `CN(C(=O)Nc1ccccc1)C(=O)N1CC1` [compound 66, 1,1-Ethylene-3-methyl-5-phenylbiuret], the “Anti-pyretic activity, inhibitory ratio (febril index)” value in data set [5] is recorded as 28%. Further, the inhibition in vivo at 100 mg/kg in data set [1] (setting [8]) was 25%; in data set [4] (setting [7]) it was 62.5%. Besides, the “Acute toxicity: death number of mice/number of mice tested” value was 2/4 in data set [2] (250 mg/kg oral) and 4/4 in data set [2] (500 mg/kg oral).
In the case of `O=C(NC(=O)N1CCCC1)Nc1ccccc1` [compound 67, 1,1-Tetramethylene-5-phenylbiuret], the inhibition in vivo at 100 mg/kg in data set [1] (setting [8]) turned out to be 37.5%; in data set [3] (po, 3 h) it was 33%; in data set [4] (setting [7]), 50%. Further, the “Acute toxicity: death number of mice/number of mice tested” value in data set [2] (2000 mg/kg oral) is on record as 0/4.
As for `O=C(NC(=O)N1CCOCC1)Nc1ccccc1` [compound 71, 1,1-(3-Oxapentamethylene)-5-phenylbiuret], the inhibition in vivo at 200 mg/kg in data set [1] (200 mg/kg oral) was 50%; in data set [3] (po, 3 h), 23%; in data set [4] (Mus musculus, 200 mg/kg oral, read-out: Analgesic activity, acetic acid-induced stretching method, inhibitory ratio) it was 40%. The “Acute toxicity: death number of mice/number of mice tested” value in data set [2] (mouse, in vivo) was 0/4.
In the case of `CN(C(=O)Nc1ccccc1)C(=O)N1CCOCC1` [compound 73, 1,1-(3-Oxapentamethylene)-3-methyl-5-phenylbiuret], the “Anti-pyretic activity, inhibitory ratio (febril index)” value in data set [5] is 17%. For the same molecule, the inhibition in vivo at 100 mg/kg was 25% in data set [1] (setting [8]) and 50% in data set [4] (setting [7]). Also, the “Acute toxicity: death number of mice/number of mice tested” value in data set [2] (mouse, in vivo) is on record as 0/4.
